Data from PMC8119466, “A screen of FDA-approved drugs identifies inhibitors of protein tyrosine phosphatase 4A3 (PTP4A3 or PRL-3)” (Scientific Reports, 2021).
Where a name gives a salt, the structure may show the parent alone. Read-outs that look alike come from different tables or passages of the source.

Legend:
Format in all cases: biochemical
[1] = target: T1, recombinant PRL-1 (Homo sapiens, UniProt Q93096); assay: In vitro phosphatase assay (DiFMUP hydrolysis), PRL-1; note: test concentration or dose not given here
T1 construct: 6xHis (N, cleaved yes); made in house; host or cells: E. coli One Shot BL21 Star
T1 sequence (Q93096 1-173): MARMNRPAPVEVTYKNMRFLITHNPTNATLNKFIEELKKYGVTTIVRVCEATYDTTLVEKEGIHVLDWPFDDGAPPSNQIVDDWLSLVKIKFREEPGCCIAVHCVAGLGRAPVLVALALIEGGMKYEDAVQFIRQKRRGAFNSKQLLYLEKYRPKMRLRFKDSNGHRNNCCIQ

[2] = target: T2, recombinant PRL-2 (Homo sapiens, UniProt Q12974); assay: In vitro phosphatase assay (DiFMUP hydrolysis), PRL-2;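 note: PRL-2 activity read as DiFMUP hydrolysis after 20 min at room temperature with drug, enzyme first pre-reduced at 4 °C for 20 min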
T2 construct: 6xHis (N, cleaved yes); made in house; host or cells: E. coli One Shot BL21 Star
T2 sequence (Q12974 1-167): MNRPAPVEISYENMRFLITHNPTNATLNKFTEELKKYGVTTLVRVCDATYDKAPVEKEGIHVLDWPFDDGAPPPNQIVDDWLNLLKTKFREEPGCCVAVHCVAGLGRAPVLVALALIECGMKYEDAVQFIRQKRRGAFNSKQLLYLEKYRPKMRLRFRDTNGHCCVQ

[3] = target: T3, recombinant PRL-3 (Homo sapiens, UniProt O75365); assay: In vitro phosphatase assay (DiFMUP hydrolysis), PRL-3; note: test concentration or dose not given here
T3 construct: 6xHis (N, cleaved yes); made in house; host or cells: E. coli One Shot BL21 Star
T3 sequence (O75365 whole entry): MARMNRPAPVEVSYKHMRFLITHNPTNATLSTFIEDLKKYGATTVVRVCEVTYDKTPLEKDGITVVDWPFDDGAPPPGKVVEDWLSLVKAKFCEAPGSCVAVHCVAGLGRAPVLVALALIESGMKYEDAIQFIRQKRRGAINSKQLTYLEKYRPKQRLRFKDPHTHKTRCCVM

[4] = FDA-approved drug screen, compared to DMSO
[5] = FDA-approved drug screen, activity compared to DMSO

| Structure (SMILES) | % Phosphatase Activity (compared to DMSO) PRL-1 [1, 4] | % Phosphatase Activity (compared to DMSO) PRL-2 [2, 4] | % Phosphatase Activity (compared to DMSO) PRL-3 [3, 4] | further results |
| --- | --- | --- | --- | --- |
| C[C@]12CC[C@H]3[C@@H](CCC4=CC(=O)CC[C@@H]43)[C@@H]1CC[C@@H]2O [Nandrolone] |  |  |  | % Phosphatase Activity (compared to DMSO) PRL-1 [1]: 93%; % Phosphatase Activity (compared to DMSO) PRL-2 [2]: 93%; % Phosphatase Activity (compared to DMSO) PRL-3 [3]: 78% |
| CC(=O)[C@H]1CC[C@H]2[C@@H]3CCC4=CC(=O)CC[C@]4(C)[C@H]3CC[C@]12C [Progesterone] | 90% | 96% | 76% |  |
| Nc1ccn([C@@H]2O[C@H](CO)[C@@H](O)C2(F)F)c(=O)n1 [Gemcitabine] | 109% | 100% | 77% |  |
| CN1CC(=O)N2[C@H](c3ccc4c(c3)OCO4)c3[nH]c4ccccc4c3C[C@@H]2C1=O [Tadalafil] |  |  |  | % Phosphatase Activity (compared to DMSO) PRL-1 [1, 5]: 109%; % Phosphatase Activity (compared to DMSO) PRL-2 [2, 5]: 97%; % Phosphatase Activity (compared to DMSO) PRL-3 [3, 5]: 82% |
| CC(=O)Oc1cc2c(s1)CCN(C(C(=O)C1CC1)c1ccccc1F)C2 (stereo not drawn) [Prasugrel Hydrochloride] | 92% | 109% | 87% |  |
| Oc1c(I)cc(Cl)c2cccnc12 [5-Chloro-8-hydroxy-7-iodoquinoline] | 96% | 90% | 71% |  |
| O=C(O)CCc1nc(-c2ccccc2)c(-c2ccccc2)o1 [Oxaprozin] | 96% | 106% | 71% |  |
| COc1c2occc2cc2ccc(=O)oc12 [Methoxsalen] | 81% | 99% | 78% |  |
| Cl.NCCc1c[nH]c2ccc(O)cc12 [Serotonin HCl] | 106% | 101% | 80% |  |
| CCCN[C@H]1CCc2nc(N)sc2C1 [Pramipexole] |  |  |  | % Phosphatase Activity (compared to DMSO) PRL-1 [1]: 109%; % Phosphatase Activity (compared to DMSO) PRL-2 [2]: 106%; % Phosphatase Activity (compared to DMSO) PRL-3 [3]: 72% |
| CC[C@H](C)C(=O)O[C@H]1C[C@H](O)C=C2C=C[C@H](C)[C@H](CC[C@@H](O)C[C@@H](O)CC(=O)O)[C@H]21 [Pravastatin sodium] | 93% | 113% | 93% |  |
| CN1CCc2nc(C(=O)N[C@@H]3C[C@@H](C(=O)N(C)C)CC[C@@H]3NC(=O)C(=O)Nc3ccc(Cl)cn3)sc2C1 [Edoxaban] | 110% | 99% | 106% |  |
| CC(=O)OCC(=O)[C@@]1(O)CC[C@H]2[C@@H]3CCC4=CC(=O)CC[C@]4(C)[C@H]3C(=O)C[C@@]21C [Cortisone acetate] | 98% | 94% | 78% |  |
| CCOC(=O)[C@H](CCc1ccccc1)N[C@@H](C)C(=O)N1CCC[C@H]1C(=O)O [Enalapril Maleate] | 83% | 92% | 93% |  |
| CCC/N=C1\S/C(=C\c2ccc(OC[C@H](O)CO)c(Cl)c2)C(=O)N1c1ccccc1C [Ponesimod] | 88% | 79% | 86% |  |
| S=C(NCc1ccc2c(c1)OCO2)N1CCN(c2ncnc3c2oc2ccccc23)CC1 [Amuvatinib (MP-470)] | 90% | 100% | 76% |  |
| Cc1ccc(S(=O)(=O)Nc2nc3ccccc3nc2Nc2ccc3nsnc3c2)cc1 [Pilaralisib (XL147)] | 94% | 65% | 98% |  |
